The values below come from US20240228535A1 (priority 2022, published 2024).

The target of the assay is SARS2 coronavirus 3CL protease (Severe acute respiratory syndrome coronavirus 2, UniProt P0DTD1). Kind of assay: biochemical. The conditions noted are these: 5 nM enzyme, 30 min pre-incubation with compound, 15 μM peptide substrate, 4 h at room temperature; read-out: FRET Potency (nM); IC50 values in the SARS2 3CLPro FRET assay.
As to `C[C@@H]1C[C@@H](C[C@H](NC(=O)c2cc(Cl)cnc2NC(=O)c2cccc(F)c2)C(=O)C(=O)NC2CC2)C(=O)N1` [Example 58, 5-chloro-N-[(1S)-3-(cyclopropylamino)-1-[[(3S,5R)-5-methyl-2-oxo-pyrrolidin-3-yl]methyl]-2,3-dioxo-propyl]-2-[(3-fluorobenzoyl)amino] pyridine-3-carboxamide], the IC50 is 8.1 nM.
Consider `C[C@@H]1C[C@@H](C[C@H](NC(=O)c2cc(Cl)ccc2NC(=O)[C@@H]2CN(C)C(=O)N2C)C(=O)C(=O)NC2CC2)C(=O)N1` [Example 212, (4S)-N-[4-chloro-2-[[(1S)-3-(cyclopropylamino)-1-[[(3S,5R)-5-methyl-2-oxo-pyrrolidin-3-yl]methyl]-2,3-dioxo-propyl]carbamoyl]phenyl]-1,3-dimethyl-2-oxo-imidazolidine-4-carboxamide], for which the IC50 was determined as 5.6 nM.
Turning to `C[C@@H]1C[C@@H](C[C@H](NC(=O)c2cc(Cl)cnc2NC(=O)C2(C(F)(F)F)CC2)C(=O)C(=O)NC2CC2)C(=O)N1` [Example 22, 5-chloro-N-[(1S)-3-(cyclopropylamino)-1-[[(3S,5R)-5-methyl-2-oxo-pyrrolidin-3-yl]methyl]-2,3-dioxo-propyl]-2-[[1-(trifluoromethyl)cyclopropane-carbonyl]amino]pyridine-3-carboxamide], the IC50 came to 22.6 nM.
Take `C[C@@H]1C[C@@H](C[C@H](NC(=O)c2cc(F)cnc2NC(=O)c2cccc(C(F)(F)F)c2)C(=O)C(=O)NC2CC2)C(=O)N1` [Example 67, N-[(1S)-3-(cyclopropylamino)-1-[[(3S,5R)-5-methyl-2-oxo-pyrrolidin-3-yl]methyl]-2,3-dioxo-propyl]-5-fluoro-2-[[3-(trifluoromethyl)benzoyl]amino]pyridine-3-carboxamide]: the IC50 was found to be 7 nM.
`C[C@@H]1C[C@@H](C[C@H](NC(=O)c2cc(Cl)ccc2NC(=O)C23CC(C(F)(F)F)(C2)C3)C(=O)C(=O)NC2CC2)C(=O)N1` [Example 69, N-[4-chloro-2-[[(1S)-3-(cyclopropylamino)-1-[[(3S,5R)-5-methyl-2-oxo-pyrrolidin-3-yl]methyl]-2,3-dioxo-propyl]carbamoyl]phenyl]-3-(trifluoromethyl)bicyclo[1.1.1] pentane-1-carboxamide]: the IC50 is 6.9 nM.
Turning to `C[C@@H]1C[C@@H](C[C@H](NC(=O)c2cc(Cl)cnc2NC(=O)CCC(F)(F)F)C(=O)C(=O)NC2CC2)C(=O)N1` [Example 52, 5-chloro-N-[(1S)-3-(cyclopropylamino)-1-[[(3S,5R)-5-methyl-2-oxo-pyrrolidin-3-yl]methyl]-2,3-dioxo-propyl]-2-(4,4,4-trifluorobutanoylamino) pyridine-3-carboxamide], the IC50 stood at 8.4 nM.
As to `C[C@@H]1C[C@@H](C[C@H](NC(=O)c2cc(Cl)ccc2NC(=O)[C@H](C)CC(F)(F)F)C(=O)C(=O)NC2CC2)C(=O)N1` [Example 209, 5-chloro-N-[(1S)-3-(cyclopropylamino)-1-[[(3S,5R)-5-methyl-2-oxo-pyrrolidin-3-yl]methyl]-2,3-dioxo-propyl]-2-[[(2R)-4,4,4-trifluoro-2-methyl-butanoyl]amino]benzamide], the IC50 worked out at 9.8 nM.
To `O=C(CCC(F)(F)F)Nc1ccc(Cl)cc1C(=O)N[C@@H](C[C@@H]1CCCNC1=O)C(=O)C(=O)NC1CC1` [Example 235, 5-chloro-N-[(1S)-3-(cyclopropylamino)-2,3-dioxo-1-[[(3S)-2-oxo-3-piperidyl]methyl]propyl]-2-(4,4,4-trifluorobutanoylamino) benzamide] belongs 15.1 nM.
Regarding `C[C@@H]1C[C@@H](C[C@H](NC(=O)c2cc(Cl)ccc2NC(=O)CCC(F)(F)F)C(=O)C(=O)NCCO)C(=O)N1` [Example 117, 5-chloro-N-[(1S)-3-(2-hydroxyethylamino)-1-[[(3S,5R)-5-methyl-2-oxo-pyrrolidin-3-yl]methyl]-2,3-dioxo-propyl]-2-(4,4,4-trifluorobutanoylamino) benzamide], the IC50 was found to be 9.3 nM.
Regarding `CNC(=O)C(=O)[C@H](C[C@@H]1CCNC1=O)NC(=O)c1cc(Cl)ccc1NC(=O)C1(C(F)(F)F)CC1` [Example 81, 5-chloro-N-[(1S)-3-(methylamino)-2,3-dioxo-1-[[(3S)-2-oxopyrrolidin-3-yl]methyl]propyl]-2-[[1-(trifluoromethyl)cyclopropane-carbonyl]amino]benzamide], the IC50 turned out to be 15.9 nM.
For the compound `CNC(=O)C(=O)[C@H](C[C@@H]1C[C@@H](C)NC1=O)NC(=O)c1cc(Cl)ccc1NC(=O)C1CC1(F)F` (single isomer, unassigned) [Example 60], the IC50 stood at 7.9 nM.
With `O=C(Nc1ccc(Cl)cc1C(=O)N[C@@H](C[C@@H]1CCNC1=O)C(=O)C(=O)NC1CC1)OCC(F)(F)F` [Example 191, 2,2,2-trifluoroethyl N-[4-chloro-2-[[(1S)-3-(cyclopropylamino)-2,3-dioxo-1-[[(3S)-2-oxopyrrolidin-3-yl]methyl]propyl]carbamoyl]phenyl]carbamate] the figure was 16.1 nM; with `C[C@@H]1C[C@@H](C[C@H](NC(=O)c2cc(Cl)cc(Cl)c2NC(=O)C23CC(F)(C2)C3)C(=O)C(=O)NC2CC2)C(=O)N1` [Example 80, N-[2,4-dichloro-6-[[(1S)-3-(cyclopropylamino)-1-[[(3S,5R)-5-methyl-2-oxo-pyrrolidin-3-yl]methyl]-2,3-dioxo-propyl]carbamoyl]phenyl]-3-fluoro-bicyclo[1.1.1]pentane-1-carboxamide], 21.6 nM.
Consider `C[C@@H]1C[C@@H](C[C@H](NC(=O)c2cc(Cl)ccc2NC(=O)c2cccc(C(F)(F)F)c2)C(=O)C(=O)NC2CC2)C(=O)N1` [Example 66, 5-chloro-N-[(1S)-3-(cyclopropylamino)-1-[[(3S,5R)-5-methyl-2-oxo-pyrrolidin-3-yl]methyl]-2,3-dioxo-propyl]-2-[[3-(trifluoromethyl)benzoyl]amino]benzamide], for which the IC50 is 7 nM.
As to `CNC(=O)C(=O)[C@H](C[C@@H]1C[C@@H](C)NC1=O)NC(=O)c1cc(Cl)ccc1NC(=O)OC1CC1(F)F` (stereo partly drawn) [Example 172, (2,2-difluorocyclopropyl) N-[4-chloro-2-[(1S)-3-(methylamino)-1-[[(3S,5R)-5-methyl-2-oxo-pyrrolidin-3-yl]methyl]-2,3-dioxo-propyl]carbamoyl]phenyl] carbamate], the IC50 turned out to be 3.7 nM.
With `C[C@@H]1C[C@@H](C[C@H](NC(=O)c2cc(Cl)ccc2NC(=O)CCC(F)(F)F)C(=O)C(=O)NCc2ccncc2)C(=O)N1` [Example 114, 5-chloro-N-[(1S)-1-[[(3S,5R)-5-methyl-2-oxo-pyrrolidin-3-yl]methyl]-2,3-dioxo-3-(4-pyridylmethylamino)propyl]-2-(4,4,4-trifluorobutanoylamino) benzamide] the figure was 18.9 nM; with `C[C@@H]1C[C@@H](C[C@H](NC(=O)c2cc(Cl)ccc2NC(=O)c2ccnc(C(F)(F)F)c2)C(=O)C(=O)NC2CC2)C(=O)N1` [Example 2, N-(4-chloro-2-(((S)-4-(cyclopropylamino)-1-((3S,5R)-5-methyl-2-oxopyrrolidin-3-yl)-3,4-dioxobutan-2-yl)carbamoyl)phenyl)-2-(trifluoromethyl)isonicotinamide], 5.6 nM.
As to `C[C@@H]1C[C@@H](C[C@H](NC(=O)c2cc(Cl)ccc2NC(=O)C2(C(F)(F)F)CC2)C(=O)C(=O)NC2CC2)C(=O)N1` [Example 1, 5-chloro-N—((S)-4-(cyclopropylamino)-1-((3S,5R)-5-methyl-2-oxopyrrolidin-3-yl)-3,4 dioxobutan-2-yl)-2-(1-(trifluoromethyl)cyclopropane-1-carboxamido)benzamide], the IC50 amounted to 7.5 nM.
To `CNC(=O)C(=O)C(CC1C[C@@H](C(F)(F)F)NC1=O)NC(=O)c1cc(C#N)ccc1NC(=O)CCC(F)(F)F` (stereo partly drawn) [Example 88, 5-cyano-N-[3-(methylamino)-2,3-dioxo-1-[[(5S)-2-oxo-5-(trifluoromethyl)pyrrolidin-3-yl]methyl]propyl]-2-(4,4,4-trifluorobutanoylamino) benzamide] belongs 114 nM.
On to `CNC(=O)C(=O)[C@H](C[C@@H]1C[C@@H](C)NC1=O)NC(=O)c1cc(Cl)ccc1NC(=O)C1(C(F)(F)F)CC1` [Example 34, 5-chloro-N-[(1S)-3-(methylamino)-1-[[(3S,5R)-5-methyl-2-oxo-pyrrolidin-3-yl]methyl]-2,3-dioxo-propyl]-2-[[1-(trifluoromethyl)cyclopropane-carbonyl]amino]benzamide], for which the IC50 was found to be 11.2 nM.
Regarding `CNC(=O)C(=O)[C@H](C[C@@H]1C[C@@H](C)NC1=O)NC(=O)c1cc(Cl)ccc1NC(=O)C(C)c1ccnc(C(F)(F)F)c1` (stereo partly drawn) [Example 227, 5-chloro-N-[(1S)-3-(methylamino)-1-[[(3S,5R)-5-methyl-2-oxo-pyrrolidin-3-yl]methyl]-2,3-dioxo-propyl]-2-[2-[2-(trifluoromethyl)-4-pyridyl]propanoylamino] benzamide], the IC50 came to 7.4 nM.
To `CNC(=O)C(=O)[C@H](C[C@@H]1C[C@@H](C(F)(F)F)NC1=O)NC(=O)c1cc(Cl)cnc1NC(=O)c1cccc(C(F)(F)F)c1` [Example 43, 5-chloro-N-[(1S)-3-(methylamino)-2,3-dioxo-1-[[(3R,5S)-2-oxo-5-(trifluoromethyl)pyrrolidin-3-yl]methyl]propyl]-2-[[3-(trifluoromethyl)benzoyl]amino]pyridine-3-carboxamide] belongs 9.6 nM; to `C[C@@H]1C[C@@H](C[C@H](NC(=O)c2cc(Cl)ccc2NC(=O)C2CCOCC2)C(=O)C(=O)NC2CC2)C(=O)N1` [Example 192, N-[4-chloro-2-[[(1S)-3-(cyclopropylamino)-1-[[(3S,5R)-5-methyl-2-oxo-pyrrolidin-3-yl]methyl]-2,3-dioxo-propyl]carbamoyl]phenyl]tetra-hydropyran-4-carboxamide], 10.3 nM; to `O=C(NC1CC1)C(=O)[C@H](C[C@@H]1CCNC1=O)NC(=O)c1cc(Cl)ccc1NC(=O)C1(C(F)(F)F)CC1` [Example 102], 12.9 nM.
